Patent US20250313563A1, “GLYCOGEN SYNTHASE KINASE 3 INHIBITORS AND USES THEREOF” (The Broad Institute, Inc., priority 2022, published 2025)
“Also recorded” adds a separate entry of the source.

Key:
[1] = target: GSK3α (Homo sapiens (Human), UniProt P49840); assay: pThr231 tau phosphorylation plate-based assay in HEK-huTau cells transfected with GSK3α; assay type: cell-based; conditions: HEK-huTau cells transfected with human GSK3α; 10-point dose response, 2 hours; read-out: GSK3α IC50 (inhibition of pThr231)
Experimental: (§1) HEK293 or SH-SY5Y cells were obtained from American Type Culture Collection (ATCC, Manassas, VA) and cultured in Dulbecco's modified Eagle's medium (DMEM) supplemented with 10% fetal bovine serum (FBS), 10 units/ml penicillin, and 10 μg/ml streptomycin (all reagents were purchased from Gibco, Waltham, MA). Cell cultures were maintained in a humidified 5% (v/v) CO2/air environment at 37° C. When the cells reached 50-80% confluence, they were transfected with a complex consisting of a 3:1 ratio of FuGENE 6 Transfection Reagent (Promega, Madison, WI) and plasmid DNA. Plasmid DNA was balanced out across reactions using an empty plasmid so that the same amount of DNA was added per well. This transfection complex was prepared following the manufacturers protocol and added directly to the cell media for 24 or 48 hours prior to lysis.
(§2) 293T cells stably expressing human 2N4R Tau were transfected with appropriate cDNA plasmids. 24 hours following transfection cells were treated with compound in a 10-point dose-response (from 1000× stocks of compound) and lysates harvested 2 hours later with cell extraction buffer (Life Technologies Cat #BN0001) or RIPA Buffer with Halt protease/phosphatase inhibitors added.
(§3) For pThr231 assay: Lysate was diluted 1:100 in assay buffer and Total Tau and pTau T231 was assessed by plate-based ELISA as per manufacturer instructions (MSD Cat #K15121D-1). Total fluorescence was measured using an Envison plate reader.
(§4) To test the potency and isoform selectivity of GSK3 small molecule inhibitors, HEK-huTau cells were transfected with plasmids containing either human GSK3α or GSK3β. Twenty-four hours after transfection, compounds were added at a 10-point dose response curve (at a range of 30 μM-3 nM) for a total of 2 hours, and cell lysates were probed for total tau and pThr231 using a plate-based assay.

[2] = target: human GSK3β (Homo sapiens (Human), UniProt P49841); assay: pThr231 tau phosphorylation plate-based assay in HEK-huTau cells transfected with GSK3β; assay type: cell-based; conditions: HEK-huTau cells transfected with human GSK3β; 10-point dose response, 2 hours; read-out: GSK3β IC50 (inhibition of pThr231)
Experimental: as §1, §2, §3, §4

[3] = tested on: tau phosphorylation at pThr231; assay: Rat developmental model of tau phosphorylation; assay type: in vivo, Sprague Dawley rats; conditions: P10 rats
Experimental: Sprague Dawley rats were bred in-house and litters were injected with compound, I.P. at post-natal day 10. Rats were then euthanized at indicated times following drug administration. For tissue collection, animals were euthanized via decapitation, brains were quickly removed, and bisected sagitally. The right cortex, was isolated, placed into 2 mL microtubes along with a single 5 mm stainless steel bead and the left cortex were placed into 2 mL Lysing Matrix A tubes (MP Biomedicals, Santa Ana, CA), Both tubes were immediately snap frozen in liquid nitrogen.
To determine whether a selective GSK3α inhibitor could also lower tau phosphorylation in a more physiological setting, 837646 was administered to rats at post-natal day 10. […] In the current experiment, 837646 was administered at 60, 20 and 10 mg/kg in P10 rats. The animals were sacrificed at several time points following treatment.

[4] = tested on: 251 unique detected kinases in rat brain; assay: In vivo kinome selectivity (chemoproteomics, kinobeads); conditions: 60 mg/kg
Experimental: Chemoproteomics competition was used to evaluate inhibitor selectivity and target engagement in vivo. Frozen cortexes were prepared for homogenization with 1.2 mL of Lysis Buffer (50 mM Tris-HCl, 0.8% NP-40 ((octylphenoxy poly(ethyleneoxy) ethanol)), 5% glycerol, 150 mM NaCl, 1.5 mM MgCl2, 25 mM NaF, 1 mM sodium vanadate, 1 mM DTT, pH 7.5 and supplemented with protease inhibitors). Tissues were homogenized in FastPrep-24 5G instrument at maximum oscillations for 20 seconds. The resulting brain homogenate was clarified by centrifugation for 1 h at 145 000 g, 4° C. The protein concentration of the supernatant was determined by BCA assay and each sample was diluted to final concentration of 5 mg/mL with lysis buffer. […] The dry peptide mixture was reconstituted in 15 μL of 0.1% trifluoro acetic acid and analyzed on ID nanoLC-MS/MS platform using a standardized 140 min method. Peptides were separated on an Easy-Spray column (75 μm×50 cm, PepMAP C18, 1.9 μm) at 250 nL/min, analyzed on a QExactive HF mass spectrometer at data dependent acquisition (DDA) mode with MS1 at 60,000 and MS2 at 15,000 resolution, respectively. […]
To investigate whether the effects of 837646 on tau phosphorylation were solely the result of GSK3 inhibition, additional kinases detected by mass spectrometry for compound engagement in the same brain lysates were profiled. […]

[5] = target: NanoLuc-GSK3β (Homo sapiens (Human), UniProt P49841); assay: NanoBRET residence time, GSK3β; assay type: cell-based; conditions: inhibitor at 10× IC50, BRET every 5 min for 3 hours
Sequence of NanoLuc-GSK3β (P49841 whole entry): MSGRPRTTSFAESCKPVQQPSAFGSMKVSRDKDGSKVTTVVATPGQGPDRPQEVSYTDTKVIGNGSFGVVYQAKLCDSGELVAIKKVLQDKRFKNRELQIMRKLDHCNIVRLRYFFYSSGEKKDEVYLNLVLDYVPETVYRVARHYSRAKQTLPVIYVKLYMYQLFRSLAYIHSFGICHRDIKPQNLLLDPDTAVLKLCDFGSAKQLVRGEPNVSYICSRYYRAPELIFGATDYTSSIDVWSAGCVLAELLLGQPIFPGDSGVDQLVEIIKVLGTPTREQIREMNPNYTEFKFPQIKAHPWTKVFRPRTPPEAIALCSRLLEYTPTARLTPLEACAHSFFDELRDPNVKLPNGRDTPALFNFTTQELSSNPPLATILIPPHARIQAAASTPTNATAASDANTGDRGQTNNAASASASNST

Sequence of human GSK3β (P49841 whole entry): as above
Sequence of GSK3α (P49840 whole entry): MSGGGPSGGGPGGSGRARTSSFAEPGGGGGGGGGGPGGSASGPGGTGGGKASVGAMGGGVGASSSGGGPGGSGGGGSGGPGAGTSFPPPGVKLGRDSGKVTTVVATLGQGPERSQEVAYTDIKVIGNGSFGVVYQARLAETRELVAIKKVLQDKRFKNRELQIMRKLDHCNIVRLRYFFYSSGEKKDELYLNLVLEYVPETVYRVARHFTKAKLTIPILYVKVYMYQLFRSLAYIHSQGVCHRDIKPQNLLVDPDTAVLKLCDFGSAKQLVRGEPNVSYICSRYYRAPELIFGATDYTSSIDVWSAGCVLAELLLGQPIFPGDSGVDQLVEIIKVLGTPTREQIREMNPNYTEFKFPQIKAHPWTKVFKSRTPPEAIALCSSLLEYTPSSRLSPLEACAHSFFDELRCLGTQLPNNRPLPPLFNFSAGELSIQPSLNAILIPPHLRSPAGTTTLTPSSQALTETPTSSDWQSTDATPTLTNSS

With CCC1(c2cccc(C(F)(F)F)c2)C2=C(Nc3n[nH]cc31)C(F)C(C)(C)CC2=O (single isomer, unassigned) [Compound 837646, 4-ethyl-8-fluoro-7,7-dimethyl-4-(3-(trifluoromethyl)phenyl)-2,4,6,7,8,9-hexahydro-5H-pyrazolo[3,4-b]quinolin-5-one] the IC50 [1] was 150 nM, the IC50 [2] was 1000 nM and the “tau phosphorylation at pThr231 vs vehicle, 24 hr” value ([3]; I.P., 20 or 60 mg/kg, 24 hr) was “significantly different from the vehicle group”. For the same compound, the “tau phosphorylation at pThr231 vs vehicle, 3 hours” value ([3]; I.P., 60, 20 and 10 mg/kg, 3 hours after administration) was “significant lowering of tau phosphorylation at pThr231; also recorded: reduction in tau phosphorylation at Thr231 at all doses tested”, the “number of off-target kinases with target engagement greater than 70%” value ([4]; Cmax, of 251 unique kinases, apart from GSK3) was 6 and the “number of kinases with target engagement greater than 70% (including GSK3α)” value ([4]; out of 251 unique detected kinases) was 7. The “residence time at GSK3β” value [5] was “no difference in the residence time”.
